Key:
[1] = system: T1, CaV2.2 channels in HEK-CaV2.2 cells (Rattus norvegicus); experiment: whole cell patch-clamp, CaV2.2 currents in HEK-CaV2.2 cells; format: cell-based
T1 construct: expressed in transfected cells
Procedure: The G-V curves are shown.
HEK-CaV2.2 cells were pretreated with various concentrations of compound 14 for 48 hours. CaV2.2 currents were acquired during 20-ms depolarizing pulses, and the current densities were calculated as a ratio of the peak current amplitude and each cell capacitance (0.1 μM, n=6; 1 μM, n=7; 10 μM, n=8; 50 μM, n=12). The line is the fit of the data to the four-parameter logistic function.
EK-CaV2.2 cells were pretreated with the indicated compounds for 48 hours. *** corresponds to […].
FIGS. 8 and 9 show the effects of 2 and 14 on the voltage dependence of activation of CaV2.2 channels in HEK-CaV2.2 cells pretreated with the vehicle or the indicated compounds for 48 hours. […] The gray vertical lines are the error bars (S.E.M.).
FIGS. 10 and 11 show acute effects of DMSO and 14 on the voltage dependence of activation of CaV2.2 channels in HEK-CaV2.2 cells. […] The gray vertical lines are the error bars (S.E.M.). “ns”—stands for not significant.
(§1) The whole cell patch-clamp technique was used to record CaV2.2 currents in HEK-CaV2.2 cells and rat DRG neurons. HEK293 cells that stably expressed rat N-type CaV2.2α1B, rat CaVβ3, and rat […] were utilized. Cells were grown in Dulbecco's modified Eagle's medium (DMEM) supplemented with 10% FBS, 50 units penicillin, 50 μg/ml streptomycin, 5 μg/ml blasticidin, 5 μg/ml hydromycin and 25 μg/ml zeozin at 37° C. in a humidified atmosphere of 95% air and 5% CO2. For patch clamp experiments, HEK-CaV2.2 cells were plated on glass coverslips and were cultured for 24-48 h. All animal procedures were performed in accordance to the NIH guide and were approved by the Indiana University School of Medicine Institutional Animal Care and Use Committee. Young adult Sprague Dawley rats were anesthetized (3% isoflurane) and then decapitated. The spinal column was removed, cut open, and dorsal root ganglia were harvested from the Lumbar L4-L6 vertebral levels. The ganglia were incubated in DMEM containing collagenase (1 mg/ml, Worthington: LS04194) and protease (1 mg/ml, Worthington: LS02104) for 30-60 minutes, and DRG neurons were dissociated by triturating in DMEM supplemented with 10% FBS. The isolated DRG neurons were plated on glass coverslips coated with growth factor reduced Matrigel (Thermo Fisher Scientific, Waltham, MA) and were cultured in Eagle's minimum essential medium (Invitrogen, CA) supplemented with 0.2% BSA and 20 ng/ml NGF-2.5S (BD Biosciences, Bedford, MA) at 37° C. in a water-jacketed 5% CO2 incubator overnight for the patch-clamp experiments.

CaVα1CaVβ3 interaction = target: T2, CaVα1CaVβ3 interaction (Rattus norvegicus, UniProt P54287); experiment: fluorescence polarization assay, inhibition constant; format: binding; conditions: fluorescence polarization assay
T2 construct: made in house; host or cells: E. coli BL21(DE3)
Procedure: (§2) The plasmid of pET28a-CaV2.2β3 subunit was transformed into competent E. Coli BL21(DE3) strain. Culture was grown in LB medium at 37° C. to an OD600 of approximately 0.6 and then induced with 0.5 mM IPTG at 16° C. for 16 h. Cells were collected by centrifugation and lysed by microfluidizer in lysis buffer (phosphate buffer, pH 7.6, 2 mM DTT). The His-CaVβ3 protein was purified at 4° C. using Ni-IMAC chromatography (His-Trap HP, GE Healthcare) and eluted with 500 mM imidazole in lysis buffer with a gradient method. After the fractions consisted of His-CaVβ3 was combined and concentrated, the protein was further purified using size exclusion chromatography (Superdex 200 pg, GE Healthcare) in PBS with 2 mM DTT.
(§3) Compound 6 forms a salt bridge interaction with Arg-307 through a benzoic acid moiety. […] Arg-307 was mutated to alanine.

[2] = target: T3, CaV2.2 currents in rat DRG neurons (Rattus norvegicus, UniProt Q02294); experiment: whole cell patch-clamp, CaV2.2 currents in rat DRG neurons; format: cell-based; conditions: 50 μM acute
T3 construct: from tissue; host or cells: dissociated dorsal root ganglion neurons (L4-L6) of young adult Sprague Dawley rats
Procedure: as §1, with “The isolated DRG neurons were plated on glass coverslips coated with growth factor reduced Matrigel (Thermo Fisher Scientific, Waltham, MA) and were cultured in Eagle's minimum essential medium (Invitrogen, CA) supplemented with 0.2% BSA and 20 ng/ml NGF-2.5S (BD Biosciences, Bedford, MA) at 37° C. in a water-jacketed 5% CO2 incubator overnight for the patch-clamp experiments.” left out

CaVβ3 Arg-307-Ala = target: T4, CaVβ3 Arg-307-Ala (Rattus norvegicus, UniProt P54287, R307A); experiment: site-directed mutagenesis: displacement of fluorescently-labeled CaVα1-AID bound to mutated CaVβ3; format: binding
T4 construct: His; made in house
Text: as §3

[3] = system: acute thermal nociception in the rat; experiment: acute thermal nociception in the rat (Hargreaves' plantar test); format: in vivo; conditions: for paw withdrawal latency (PWL), analgesic effect: rats, n=6 per group, FIG. 12
Procedure: Pathogen-free, adult, female Sprague Dawley (weight at testing 150-200 g; Harlan-Sprague-Dawley, Indianapolis, IN) were housed in a climate-controlled room on a 12-hour light/dark cycle and were allowed to have food and water ad libitum. All procedures were approved by the Indiana University Animal Care and Use Committee and conformed to the guidelines of the National Institutes of Health (publication no. 80-23, 1966) for the use of laboratory animals. All behavioral experiments were conducted by experimenters blinded to the treatment conditions and compound identity. The experiments were replicated a minimum of 2 times with independent cohorts of animals. For in vivo studies, the inventive compounds were freshly prepared saline (0.9%) on the day of the experiment. […] Louis, MO) was freshly prepared on the day of the experiment in saline. All drugs were dissolved in 1 mL solution and administered by intraperitoneal (i.p.) injections 1 h prior to all behavioral assays. To evaluate the PWT to thermal stimulation, the Hargreaves' plantar test apparatus (Ugo Basile, Varese, Italy) was used. Measurements of the withdrawal latency of the paw began after the rats were habituated to the testing environment (IR setting=70). The measurements were repeated four times, at 5 min intervals and the initial pair of measurements was not used. The averages of the three remaining pairs of measurements taken were employed as data. A model of behavioral sensitivity using thermal stimulus was used to determine the acute analgesic properties of the compounds of the present invention.

CaVβ3 = target: T5, CaVβ3 (Rattus norvegicus, UniProt P54287); experiment: label-free microscale thermophoresis (MST), direct binding; conditions: direct binding to CaVβ3, read-out: dissociation constant (Kd)
T5 construct: made in house; host or cells: E. coli BL21(DE3)
Procedure: Curve fitting analysis led to a dissociation constant of 3.6±1.1 μM.
as §2
Direct binding of compound 6 to CaVβ3 was confirmed with label-free microscale thermophoresis (MST).

[4] = system: tibial nerve injury (TNI) model of neuropathic pain; experiment: tibial nerve injury (TNI) model of neuropathic pain, von Frey withdrawal threshold; format: in vivo, rat; conditions: for withdrawal threshold to von Frey stimulation: 1 h, 28 days after TNI, before dosing 33.1±5.9, pre-surgery 68.7±3.7
Procedure: Pathogen-free, adult, female Sprague Dawley (weight at testing 150-200 g; Harlan-Sprague-Dawley, Indianapolis, IN) were housed in a climate-controlled room on a 12-hour light/dark cycle and were allowed to have food and water ad libitum. All procedures were approved by the Indiana University Animal Care and Use Committee and conformed to the guidelines of the National Institutes of Health (publication no. 80-23, 1966) for the use of laboratory animals. All behavioral experiments were conducted by experimenters blinded to the treatment conditions and compound identity. The experiments were replicated a minimum of 2 times with independent cohorts of animals.
For in vivo studies, the inventive compounds were freshly prepared saline (0.9%) on the day of the experiment. Morphine sulfate salt (Sigma-Aldrich, St. Louis, MO) was freshly prepared on the day of the experiment in saline. […]
The inventive compounds were assessed with the tibial nerve injury (TNI) model of neuropathic pain 28 days after surgery. Using isoflurane anesthesia (4% induction and 2% maintenance), the right sciatic nerve was isolated under aseptic surgical conditions by blunt dissection of the femoral biceps muscle and the tibial nerve was tightly ligated with 5-0 silk and transected distal to the ligation. Additional 2 to 3 mm of distal nerve stump was removed to prevent reinnervation by the proximal nerve. The overlying muscle and skin was then sutured in 2 separate layers. Sham-injured animals were subjected to all preceding procedures with the exception of ligation and transection. All animals were returned to the housing facility and allowed to survive for 28 d. Mechanical stimuli were applied with 7 filaments, each differing in the bending force delivered (10, 20, 40, 60, 80, 100, and 120 mN), and fitted with a flat tip and fixed diameter of 0.2 mm. The filaments were tested in the order of ascending force, with each filament delivered for 1 second. Withdrawal threshold was determined by sequentially increasing and analyzed with Hill equation was fitted to the function (Origin version 6.0; Microcal Software) relating the percentage of indentations eliciting a withdrawal to the force of indentation.

T1 sequence (P54287 whole entry): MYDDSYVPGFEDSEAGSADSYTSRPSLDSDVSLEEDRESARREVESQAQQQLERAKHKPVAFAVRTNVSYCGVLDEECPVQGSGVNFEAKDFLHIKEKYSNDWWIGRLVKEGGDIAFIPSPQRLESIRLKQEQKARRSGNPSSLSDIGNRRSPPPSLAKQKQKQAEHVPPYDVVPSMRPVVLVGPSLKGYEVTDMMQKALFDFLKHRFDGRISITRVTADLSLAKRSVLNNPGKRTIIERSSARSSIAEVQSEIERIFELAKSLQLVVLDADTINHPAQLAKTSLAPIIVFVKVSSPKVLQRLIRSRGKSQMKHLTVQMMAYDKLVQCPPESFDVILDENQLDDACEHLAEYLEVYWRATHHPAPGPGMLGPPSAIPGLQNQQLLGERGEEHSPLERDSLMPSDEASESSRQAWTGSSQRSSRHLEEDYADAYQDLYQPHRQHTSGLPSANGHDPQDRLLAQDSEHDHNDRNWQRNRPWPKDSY
T4 sequence (P54287 whole entry R307A): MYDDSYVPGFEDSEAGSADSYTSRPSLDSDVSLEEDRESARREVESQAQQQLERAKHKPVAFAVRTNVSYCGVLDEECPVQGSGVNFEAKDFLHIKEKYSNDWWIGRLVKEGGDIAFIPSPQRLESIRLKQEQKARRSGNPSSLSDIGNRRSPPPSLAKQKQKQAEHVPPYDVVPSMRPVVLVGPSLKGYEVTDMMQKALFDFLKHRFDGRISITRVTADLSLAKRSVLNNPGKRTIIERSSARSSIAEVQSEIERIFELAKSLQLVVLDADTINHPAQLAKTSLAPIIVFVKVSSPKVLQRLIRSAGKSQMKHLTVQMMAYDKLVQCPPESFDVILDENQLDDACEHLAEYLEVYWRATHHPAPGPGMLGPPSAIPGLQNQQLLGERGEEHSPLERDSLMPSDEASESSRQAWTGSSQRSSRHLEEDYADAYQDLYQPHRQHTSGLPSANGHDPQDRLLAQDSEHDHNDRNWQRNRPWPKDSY
T3 sequence (P54287 whole entry partner): as the sequence (P54287 whole entry) above
T3 sequence (Q02294 whole entry): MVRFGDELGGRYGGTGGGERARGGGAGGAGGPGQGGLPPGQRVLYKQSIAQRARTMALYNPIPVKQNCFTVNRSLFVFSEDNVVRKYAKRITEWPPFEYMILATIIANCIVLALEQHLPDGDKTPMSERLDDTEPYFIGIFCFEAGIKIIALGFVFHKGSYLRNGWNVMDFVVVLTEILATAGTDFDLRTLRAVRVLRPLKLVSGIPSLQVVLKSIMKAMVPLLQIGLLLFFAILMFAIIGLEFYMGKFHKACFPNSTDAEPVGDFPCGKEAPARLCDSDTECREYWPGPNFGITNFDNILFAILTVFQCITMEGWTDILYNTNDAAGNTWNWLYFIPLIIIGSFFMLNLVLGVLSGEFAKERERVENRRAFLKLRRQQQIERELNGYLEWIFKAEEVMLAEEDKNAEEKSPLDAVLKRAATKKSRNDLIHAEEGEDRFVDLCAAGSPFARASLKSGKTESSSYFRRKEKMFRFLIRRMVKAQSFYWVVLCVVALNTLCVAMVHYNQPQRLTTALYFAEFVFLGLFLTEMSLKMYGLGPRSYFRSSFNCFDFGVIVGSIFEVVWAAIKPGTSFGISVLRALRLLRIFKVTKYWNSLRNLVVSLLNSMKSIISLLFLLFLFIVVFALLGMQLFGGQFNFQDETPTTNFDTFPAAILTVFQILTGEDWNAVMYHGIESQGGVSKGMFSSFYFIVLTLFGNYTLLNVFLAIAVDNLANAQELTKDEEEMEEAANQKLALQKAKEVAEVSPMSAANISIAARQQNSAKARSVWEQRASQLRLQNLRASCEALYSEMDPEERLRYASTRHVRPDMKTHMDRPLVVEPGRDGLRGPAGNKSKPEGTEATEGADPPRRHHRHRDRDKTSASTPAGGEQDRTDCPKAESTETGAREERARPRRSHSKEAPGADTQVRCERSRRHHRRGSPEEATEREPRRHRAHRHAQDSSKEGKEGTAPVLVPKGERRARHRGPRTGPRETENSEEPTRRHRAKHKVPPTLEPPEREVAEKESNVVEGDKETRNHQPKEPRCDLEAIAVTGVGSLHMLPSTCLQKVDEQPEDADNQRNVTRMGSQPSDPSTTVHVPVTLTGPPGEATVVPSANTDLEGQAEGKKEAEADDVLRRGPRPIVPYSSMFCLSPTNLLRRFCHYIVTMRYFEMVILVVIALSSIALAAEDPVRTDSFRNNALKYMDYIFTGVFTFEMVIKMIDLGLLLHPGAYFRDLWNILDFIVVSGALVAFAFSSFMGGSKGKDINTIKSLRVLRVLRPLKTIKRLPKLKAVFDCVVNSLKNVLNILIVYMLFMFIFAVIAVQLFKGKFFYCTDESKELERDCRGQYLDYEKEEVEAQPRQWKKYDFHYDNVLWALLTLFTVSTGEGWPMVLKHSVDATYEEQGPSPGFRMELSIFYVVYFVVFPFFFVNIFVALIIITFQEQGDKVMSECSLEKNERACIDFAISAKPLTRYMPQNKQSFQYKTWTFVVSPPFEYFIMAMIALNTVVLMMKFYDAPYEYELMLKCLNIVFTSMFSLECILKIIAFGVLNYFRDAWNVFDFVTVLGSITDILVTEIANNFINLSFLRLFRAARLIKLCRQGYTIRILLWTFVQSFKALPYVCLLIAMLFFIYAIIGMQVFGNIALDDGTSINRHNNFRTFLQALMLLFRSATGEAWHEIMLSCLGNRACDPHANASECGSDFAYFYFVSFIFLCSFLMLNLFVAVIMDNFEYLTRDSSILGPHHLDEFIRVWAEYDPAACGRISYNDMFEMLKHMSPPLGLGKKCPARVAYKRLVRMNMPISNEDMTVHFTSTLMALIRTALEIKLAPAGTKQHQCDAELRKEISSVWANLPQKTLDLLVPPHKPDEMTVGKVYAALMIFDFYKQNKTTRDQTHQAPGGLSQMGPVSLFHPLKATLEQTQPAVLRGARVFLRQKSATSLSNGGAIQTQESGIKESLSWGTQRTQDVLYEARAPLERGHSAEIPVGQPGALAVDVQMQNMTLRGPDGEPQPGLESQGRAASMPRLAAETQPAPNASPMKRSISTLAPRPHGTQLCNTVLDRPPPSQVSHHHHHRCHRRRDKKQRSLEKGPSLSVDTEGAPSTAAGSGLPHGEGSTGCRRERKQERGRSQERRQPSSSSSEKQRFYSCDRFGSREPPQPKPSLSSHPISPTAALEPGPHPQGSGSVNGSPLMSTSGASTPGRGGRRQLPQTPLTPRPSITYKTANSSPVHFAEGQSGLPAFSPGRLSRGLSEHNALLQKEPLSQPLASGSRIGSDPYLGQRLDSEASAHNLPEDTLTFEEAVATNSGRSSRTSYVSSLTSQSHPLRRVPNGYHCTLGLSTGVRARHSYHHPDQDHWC
T2 sequence (P54287 whole entry): as the sequence (P54287 whole entry) above
T5 sequence (P54287 whole entry): as above

## COc1ccc(C2=NN(C(=O)c3cccc(C(=O)O)c3)C(c3cn(-c4ccccc4)nc3-c3ccc(C)cc3)C2)cc1 (stereo not shown) [Compound 6, 3-(5-(4-methoxyphenyl)-1′-phenyl-3′-(p-tolyl)-3,4-dihydro-1′H,2H-[3,4′-bipyrazole]-2-carbonyl)benzoic acid]
[1]; 50 μM acute, HEK-CaV2.2 cells
  effect on CaV2.2 currents, acute application: did not affect
[1]; 50 μM, pretreated 48 hours, DMSO −98.0±12.5
  CaV2.2 current density: −28.7±5.0 pA/pF
[1]; pretreated 48 hours (50 μM per FIG. 4), DMSO 6.7±0.6
  mean half-activation potential: 9.4±1.2 mV
CaVα1CaVβ3 interaction
  Ki: 1.4 ± 0.1 µM
[2]
  effect on CaV2.2 currents, acute application: did not affect
CaVβ3 Arg-307-Ala
  inhibition of the protein-protein interaction with CaVβ3 Arg-307-Ala (displacement of fluorescently-labeled CaVα1-AID): does not inhibit
[3]
  paw withdrawal latency (PWL), analgesic effect: lack of analgesic effect
[3]; systemic administration, 1 or 10 mg/kg
  response latency to thermal stimulus: failed to elicit changes
CaVβ3
  Kd: 3.6 ± 1.1 µM
[4]; 1 mg/kg and 0.1 mg/kg, at 1 or 4 hours
  effect on behavior (tactile hypersensitivity): did not alter behavior
[4]; 10 mg/kg ip
  withdrawal threshold to von Frey stimulation: 62.2±3.1 mN
[4]; 10 mg/kg ip, 4 h after administration
  attenuation of tactile hypersensitivity at 4 h: not at 4 h
[4]; 10 mg/kg, 4 weeks after TNI
  duration of reversal of mechanical hypersensitivity: limited to 1 h

## COc1ccc(C2=NN(C(=O)CCC(C)=O)C(c3cn(-c4ccccc4)nc3-c3ccc(C)cc3)C2)cc1 (stereo not shown) [Compound 2, 1-(5-(4-methoxyphenyl)-1′-phenyl-3′-(p-tolyl)-3,4-dihydro-1′H,2H-[3,4′-bipyrazol]-2-yl)pentane-1,4-dione]
[1]; 50 μM, pretreated 48 hours
  steady-state inactivation V0.5, inact: −61.6±2.0 mV
[1]; 50 μM, pretreated 48 hours, depolarizing pulses to 0 mV from holding potential −80 mV, DMSO −74.8±7.0
  density of CaV2.2 currents: −79.2±8.2 pA/pF
[1]; pretreated 48 hours, DMSO 8.7±1.1
  mean half-activation potential V0.5, act: 8.5±1.4 mV
[1]; used acutely or as a long-term treatment, HEK-CaV2.2 cells
  effect on CaV2.2 currents amplitudes: did not affect
[3]
  paw withdrawal latency (PWL), analgesic effect: lack of analgesic effect
[4]; 10 mg/kg ip
  withdrawal threshold to von Frey stimulation: 32±2.6 mN
